Data reported in patent publication US4760136A, “Chartreusin derivatives and salts thereof” (Ishihara Sangyo Kaisha, Ltd., priority 1984, dated 1988).
Where two headings read alike, the source gives them in different places.

How the values were obtained:
[1] = test system: P-388 leukemia cells; test: Antitumor activity: P-388 leukemia cells inoculated intraperitoneally, drug administered intravenously, BDF1 mice; type: in vivo; conditions: Mus musculus, P388, iv, read-out: T/C (%) of MST; for response vs control in vivo at 20 mg/kg: dose b: 20 mg/kg × 3, i.v. on days 1, 5 and 9; for response vs control in vivo at 10 mg/kg: dose a: 10 mg/kg × 3, i.v. on days 1, 5 and 9
Procedure, shortened: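 Drug dosing was intravenous on the first, fifth and ninth days after intraperitoneal inoculation of P-388 leukemia cells (1×10^6 per mouse) into BDF1 mice. Vehicles were physiological saline alone, or saline with small amounts of sodium carboxymethyl cellulose or Tween-80.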

[2] = Acute toxicity, intravenous (once), ddY mice; type: in vivo; conditions: mouse, in vivo, formulated per Preparation Example
Excerpt: In Table 7 are shown acute toxicity values (LD50, mg/kg) in ddY mice in the case of intravenously administering (once) each of the compounds of this invention in the form of preparations shown in the Preparation Examples shown in Table 7.

[3] = dose c: 40 mg/kg × 3, i.v. on days 1, 5 and 9, BDF1 mice, P-388 i.p.
[4] = dose f: 80 mg/kg × 3, i.v. on days 1, 5 and 9, BDF1 mice, P-388 i.p.

| SMILES | response vs control in vivo at 40 mg/kg [1, 3] [%] | LD50 ([2]; iv) [mg/kg] | response vs control in vivo at 20 mg/kg ([1]; BDF1 mice, P-388 i.p.) [%] | other results |
| --- | --- | --- | --- | --- |
| C/C=C/C(=O)Oc1c2cccc(O[C@@H]3O[C@H](C)[C@@H]4OC(C)(C)O[C@@H]4[C@H]3O[C@H]3O[C@H](C)[C@H](O)[C@H](OC)[C@H]3O)c2c2oc(=O)c3c(C)ccc4oc(=O)c1c2c43 [compound 200] | 168 | ≥ 80 |  |  |
| CO[C@H]1[C@@H](O)[C@@H](C)O[C@H](O[C@H]2[C@H](Oc3cccc4c(OC(=O)c5ccccc5Cl)c5c(=O)oc6ccc(C)c7c(=O)oc(c34)c5c67)O[C@H](C)[C@@H]3OC(C)(C)O[C@@H]32)[C@@H]1O [Compound No. 181] | 145 | ≥ 80 |  | response vs control in vivo at 80 mg/kg [1, 4]: 208% |
| COC1C(O)C(C)OC(OC2C(Oc3cccc4c(OC(=O)CCNC(=O)OCc5ccccc5)c5c(=O)oc6ccc(C)c7c(=O)oc(c34)c5c67)OC(C)C3OC(c4ccccc4)OC32)C1O (stereo not drawn) [compound 72] |  | ≥ 40 | 167 |  |
| CO[C@H]1[C@@H](O)[C@@H](C)O[C@H](O[C@H]2[C@H](Oc3cccc4c(OC(=O)c5ccc(C(F)(F)F)cc5)c5c(=O)oc6ccc(C)c7c(=O)oc(c34)c5c67)O[C@H](C)[C@@H]3OC(C)(C)O[C@@H]32)[C@@H]1O [Compound No. 182] | 153 | ≥ 80 |  | response vs control in vivo at 80 mg/kg [1, 4]: 192% |
| COC1C(O)C(C)OC(OC2C(Oc3cccc4c(OC(=O)CCNC(=O)CNC(=O)OCc5ccccc5)c5c(=O)oc6ccc(C)c7c(=O)oc(c34)c5c67)OC(C)C3OC(c4cccc(F)c4)OC32)C1O (stereo not drawn) [Compound No. 61] | 220 | ≥ 40 | 176 |  |
| COC1C(O)C(C)OC(OC2C(Oc3cccc4c(OC(=O)c5cccc(N(C)C)c5)c5c(=O)oc6ccc(C)c7c(=O)oc(c34)c5c67)OC(C)C3OC(c4cccc(F)c4)OC32)C1O (stereo not drawn) [Compound No. 158, 6-O-(m-Dimethylaminobenzoyl)-3',4'-O-(m-Fluorobenzylidene)-Chartreusin] | 174 | ≥ 80 |  | response vs control in vivo at 80 mg/kg [1, 4]: 205% |
| C/C=C(\C)C(=O)Oc1c2cccc(OC3OC(C)C4OC(c5ccc(OC)cc5)OC4C3OC3OC(C)C(O)C(OC)C3O)c2c2oc(=O)c3c(C)ccc4oc(=O)c1c2c43 (stereo not drawn) [compound 234] |  |  |  | response vs control in vivo at 40 mg/kg [1]: 135%; LD50 [2]: ≥ 40 mg/kg |
| COC1C(O)C(C)OC(OC2C(Oc3cccc4c(OC(=O)CCCCCN)c5c(=O)oc6ccc(C)c7c(=O)oc(c34)c5c67)OC(C)C3OC(c4ccccc4)OC32)C1O (stereo not drawn) [Compound No. 19] | 233 | ≥ 40 | 184 |  |
| COC1C(O)C(C)OC(OC2C(Oc3cccc4c(OC(=O)CNC(=O)CNC(=O)CNC(=O)OCc5ccccc5)c5c(=O)oc6ccc(C)c7c(=O)oc(c34)c5c67)OC(C)C3OC(c4cccc(F)c4)OC32)C1O (stereo not drawn) [compound 116] | 130 | ≥ 30 |  |  |
| CCC(CN(C)C)C(=O)Oc1c2cccc(OC3OC(C)C4OC(c5ccccc5)OC4C3OC3OC(C)C(O)C(OC)C3O)c2c2oc(=O)c3c(C)ccc4oc(=O)c1c2c43 (stereo not drawn) [compound 134] |  | ≥ 30 | 175 | response vs control in vivo at 10 mg/kg ([1]; BDF1 mice, P-388 i.p.): 192% |
| C/C=C/C(=O)Oc1c2cccc(OC3OC(C)C4OC5(CCCCC5)OC4C3OC3OC(C)C(O)C(OC)C3O)c2c2oc(=O)c3c(C)ccc4oc(=O)c1c2c43 (stereo not drawn) [compound 221] |  |  |  | response vs control in vivo at 80 mg/kg [1]: 168%; LD50 [2]: ≥ 80 mg/kg |
| COC1C(O)C(C)OC(OC2C(Oc3cccc4c(OC(=O)CCNC=O)c5c(=O)oc6ccc(C)c7c(=O)oc(c34)c5c67)OC(C)C3OC(c4ccc(F)cc4)OC32)C1O (stereo not drawn) [compound 92] | 192 | ≥ 40 | 146 |  |
| CO[C@H]1[C@@H](O)[C@@H](C)O[C@H](O[C@H]2[C@H](Oc3cccc4c(OC(=O)C5CC5C)c5c(=O)oc6ccc(C)c7c(=O)oc(c34)c5c67)O[C@H](C)[C@@H]3OC(c4ccc(Cl)cc4)O[C@@H]32)[C@@H]1O (stereo partly drawn) [Compound No. 190] | 145 | ≥ 80 |  | response vs control in vivo at 80 mg/kg [1, 4]: 208% |
| COc1cccc(C(=O)Oc2c3cccc(O[C@@H]4O[C@H](C)[C@@H]5OC(c6ccccc6)O[C@@H]5[C@H]4O[C@H]4O[C@H](C)[C@H](O)[C@H](OC)[C@H]4O)c3c3oc(=O)c4c(C)ccc5oc(=O)c2c3c54)c1 (stereo partly drawn) [compound 193] |  | ≥ 40 |  | response vs control in vivo at 10 mg/kg ([1]; BDF1 mice, P-388 i.p.): 162% |
| COC1C(O)C(C)OC(OC2C(Oc3cccc4c(OC(=O)CCNC(=O)CN)c5c(=O)oc6ccc(C)c7c(=O)oc(c34)c5c67)OC(C)C3OC(c4ccccc4)OC32)C1O (stereo not drawn) [compound 10] | 197 | ≥ 40 | 161 |  |
